The values that follow are results of earlier work, collected in patent US20070238696A1, “Dosage unit for cardioprotection” (priority 2000, published 2007).

For this data set the following is noted: men, median intake 419 IU/day compared to median intake 6 IU/day; followed for four years.

vitamin E: the relative risk reduction is 44%.
